# Assays:
# barnyard grass [1] = test: Test Example 5: herbicidal effect by foliage application, plastic box (Table 20, symbol H); type: in vivo, barnyard grass (Echinochloa crus-galli); details: foliage application
# How it was run: (§1)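 Plants were sown into sterilized diluvial soil under about 1.5 cm cover and kept in a greenhouse at 25° C. to 30° C. Fourteen days on, foliage received an even spray of the diluted emulsion. Herbicidal or crop effect was judged three weeks afterwards.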
# barnyard grass [2] = test: Test Example 3: herbicidal effect by foliage application, Wagner pot (Table 18, symbol H); type: in vivo, barnyard grass (Echinochloa crus-galli); details: amount of applied herbicide 320 g/ha
# How it was run: (§2)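 Plants were sown in alluvial soil held under 0.1–0.5 cm standing water and grown 14 days in a greenhouse at 25–30 °C. An emulsifiable formulation, water-diluted to the set dose, was then sprayed onto the foliage, and effects were scored three weeks later using previously defined criteria.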
# southern crabgrass [3] = test: Test Example 5: herbicidal effect by foliage application, plastic box (Table 20, symbol F); type: in vivo, southern crabgrass (Digitaria ciliaris); details: foliage application
# How it was run: as §1
# Chinese sprangletop = test: Test Example 3: herbicidal effect by foliage application, Wagner pot (Table 18, symbol D); type: in vivo, chinese sprangletop (Leptochloa chinensis); details: amount of applied herbicide 320 g/ha
# How it was run: as §2
# velvetleaf [4] = test: Test Example 5: herbicidal effect by foliage application, plastic box (Table 20, symbol M); type: in vivo, velvetleaf (Abutilon theophrasti); details: foliage application
# How it was run: as §1
# blackgrass [5] = test: Test Example 4: herbicidal effect by soil treatment (Table 19, symbol J); type: in vivo, blackgrass (Alopecurus myosuroides); details: amount of applied herbicide 320 g/ha
# How it was run: (§3)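 Pre-emergence style soil spray: seeds under ~1.5 cm sterilized diluvial soil received a uniform coat of emulsion diluted to the predetermined herbicide amount. Greenhouse 25–30° C; readout at week three on previously defined criteria.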
# windgrass [6] = test: Test Example 4: herbicidal effect by soil treatment (Table 19, symbol L); type: in vivo, windgrass (Apera spica-venti); details: amount of applied herbicide 320 g/ha
# How it was run: as §3
# redroot pigweed [7] = test: Test Example 5: herbicidal effect by foliage application, plastic box (Table 20, symbol N); type: in vivo, redroot pigweed (Amaranthus retroflexus); details: foliage application
# How it was run: as §1
# chickweed [8] = test: Test Example 4: herbicidal effect by soil treatment (Table 19, symbol P); type: in vivo, common chickweed (Stellaria media); details: amount of applied herbicide 320 g/ha
# How it was run: as §3
# Japanese bulrush = test: Test Example 2: herbicidal activity, application during weed generation under submerged conditions (Table 17, symbol B); type: in vivo, Japanese bulrush (Schoenoplectus juncoides); details: AAH 320 g/ha; application during weed generation, submerged conditions
# How it was run: (§4)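 Steps: fill Wagner pots with alluvial soil; add water to give 4 cm depth; sow the species mixed; grow under glass at 25–30° C.; at 1–2 leaves apply water-diluted emulsion formulation to the water surface at a fixed herbicide amount; score after 3 weeks.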
# late watergrass = test: Test Example 2: herbicidal activity, application during weed generation under submerged conditions (Table 17, symbol A); type: in vivo, late watergrass (Echinochloa oryzicola); details: AAH 320 g/ha; application during weed generation, submerged conditions
# How it was run: as §4
# Italian ryegrass [9] = test: Test Example 4: herbicidal effect by soil treatment (Table 19, symbol K); type: in vivo, Italian ryegrass (Lolium multiflorum); details: amount of applied herbicide 320 g/ha
# How it was run: as §3
# green foxtail [10] = test: Test Example 4: herbicidal effect by soil treatment (Table 19, symbol G); type: in vivo, green foxtail (Setaria viridis); details: amount of applied herbicide 320 g/ha
# How it was run: as §3
# rice flat sedge = test: Test Example 3: herbicidal effect by foliage application, Wagner pot (Table 18, symbol E); type: in vivo, rice flat sedge (Cyperus iria); details: amount of applied herbicide 320 g/ha
# How it was run: as §2
# wild oat [11] = test: Test Example 4: herbicidal effect by soil treatment (Table 19, symbol I); type: in vivo, wild oat (Avena fatua); details: amount of applied herbicide 320 g/ha
# How it was run: as §3
# lambsquarters [12] = test: Test Example 4: herbicidal effect by soil treatment (Table 19, symbol O); type: in vivo, lambsquarters (Chenopodium album); details: amount of applied herbicide 320 g/ha
# How it was run: as §3
# barnyard grass [13] = test: Test Example 4: herbicidal effect by soil treatment (Table 19, symbol H); type: in vivo, barnyard grass (Echinochloa crus-galli); details: amount of applied herbicide 320 g/ha
# How it was run: as §3
# Italian ryegrass [14] = test: Test Example 5: herbicidal effect by foliage application, plastic box (Table 20, symbol K); type: in vivo, Italian ryegrass (Lolium multiflorum); details: foliage application
# How it was run: as §1
# persian speedwell [15] = test: Test Example 5: herbicidal effect by foliage application, plastic box (Table 20, symbol R); type: in vivo, Persian speedwell (Veronica persica); details: foliage application
# How it was run: as §1
# chickweed [16] = test: Test Example 5: herbicidal effect by foliage application, plastic box (Table 20, symbol P); type: in vivo, common chickweed (Stellaria media); details: foliage application
# How it was run: as §1
# persian speedwell [17] = test: Test Example 4: herbicidal effect by soil treatment (Table 19, symbol R); type: in vivo, Persian speedwell (Veronica persica); details: amount of applied herbicide 320 g/ha
# How it was run: as §3
# velvetleaf [18] = test: Test Example 4: herbicidal effect by soil treatment (Table 19, symbol M); type: in vivo, velvetleaf (Abutilon theophrasti); details: amount of applied herbicide 320 g/ha
# How it was run: as §3
# windgrass [19] = test: Test Example 5: herbicidal effect by foliage application, plastic box (Table 20, symbol L); type: in vivo, windgrass (Apera spica-venti); details: foliage application
# How it was run: as §1
# oval-leafed pondweed = test: Test Example 2: herbicidal activity, application during weed generation under submerged conditions (Table 17, symbol C); type: in vivo, oval-leafed pondweed (Monochoria vaginalis); details: AAH 320 g/ha; application during weed generation, submerged conditions
# How it was run: as §4
# lambsquarters [20] = test: Test Example 5: herbicidal effect by foliage application, plastic box (Table 20, symbol O); type: in vivo, lambsquarters (Chenopodium album); details: foliage application
# How it was run: as §1
# wild oat [21] = test: Test Example 5: herbicidal effect by foliage application, plastic box (Table 20, symbol I); type: in vivo, wild oat (Avena fatua); details: foliage application
# How it was run: as §1
# redroot pigweed [22] = test: Test Example 4: herbicidal effect by soil treatment (Table 19, symbol N); type: in vivo, redroot pigweed (Amaranthus retroflexus); details: amount of applied herbicide 320 g/ha
# How it was run: as §3
# southern crabgrass [23] = test: Test Example 4: herbicidal effect by soil treatment (Table 19, symbol F); type: in vivo, southern crabgrass (Digitaria ciliaris); details: amount of applied herbicide 320 g/ha
# How it was run: as §3
# blackgrass [24] = test: Test Example 5: herbicidal effect by foliage application, plastic box (Table 20, symbol J); type: in vivo, blackgrass (Alopecurus myosuroides); details: foliage application
# How it was run: as §1
# green foxtail [25] = test: Test Example 5: herbicidal effect by foliage application, plastic box (Table 20, symbol G); type: in vivo, green foxtail (Setaria viridis); details: foliage application
# How it was run: as §1
# [26] = AAH 320 g/ha, evaluated three weeks after application
# [27] = 320 g/ha, three weeks after application
compound,measurement,setting,value
CCOC(=O)OC(C)Oc1c(C)nn(C)c(=O)c1-c1c(-c2ccc(OC(F)F)cc2)sc2ccc(F)cc12 (stereo not drawn) [2-308],"H: barnyard grass, herbicidal effect (criteria 0-5)",barnyard grass [1]; [26],4 (Herbicidal rate of 70% or more and less than 90%)
same,herbicidal effect on H: barnyard grass,barnyard grass [2],5 (Herbicidal rate of 90% or more (almost completely withered))
same,"F: southern crabgrass, herbicidal effect (criteria 0-5)",southern crabgrass [3]; [26],1 (Herbicidal rate of 5% or more and less than 20%)
same,herbicidal effect on D: Chinese sprangletop,Chinese sprangletop,3 (Herbicidal rate of 40% or more and less than 70%)
same,"M: velvetleaf, herbicidal effect (criteria 0-5)",velvetleaf [4]; [26],5 (Herbicidal rate of 90% or more (almost completely withered))
same,herbicidal effect on J: blackgrass,blackgrass [5],0 (Herbicidal rate of 5% or less (almost no effect))
same,herbicidal effect on L: windgrass,windgrass [6],0 (Herbicidal rate of 5% or less (almost no effect))
same,"N: redroot pigweed, herbicidal effect (criteria 0-5)",redroot pigweed [7]; [26],4 (Herbicidal rate of 70% or more and less than 90%)
same,herbicidal effect on P: chickweed,chickweed [8],0 (Herbicidal rate of 5% or less (almost no effect))
same,"herbicidal effect rating, B: Japanese bulrush",Japanese bulrush,0 (Herbicidal rate of 5% or less (almost no effect))
same,"herbicidal effect rating, A: late watergrass",late watergrass,3 (Herbicidal rate of 40% or more and less than 70%)
same,herbicidal effect on K: Italian ryegrass,Italian ryegrass [9],0 (Herbicidal rate of 5% or less (almost no effect))
same,herbicidal effect on G: green foxtail,green foxtail [10],0 (Herbicidal rate of 5% or less (almost no effect))
same,herbicidal effect on E: rice flat sedge,rice flat sedge,4 (Herbicidal rate of 70% or more and less than 90%)
same,herbicidal effect on I: wild oat,wild oat [11],0 (Herbicidal rate of 5% or less (almost no effect))
same,herbicidal effect on O: lambsquarters,lambsquarters [12],0 (Herbicidal rate of 5% or less (almost no effect))
same,herbicidal effect on H: barnyard grass,barnyard grass [13],0 (Herbicidal rate of 5% or less (almost no effect))
same,"K: Italian ryegrass, herbicidal effect (criteria 0-5)",Italian ryegrass [14]; [26],0 (Herbicidal rate of 5% or less (almost no effect))
same,"R: persian speedwell, herbicidal effect (criteria 0-5)",persian speedwell [15]; [26],5 (Herbicidal rate of 90% or more (almost completely withered))
same,"P: chickweed, herbicidal effect (criteria 0-5)",chickweed [16]; [26],5 (Herbicidal rate of 90% or more (almost completely withered))
same,herbicidal effect on R: persian speedwell,persian speedwell [17],5 (Herbicidal rate of 90% or more (almost completely withered))
same,herbicidal effect on M: velvetleaf,velvetleaf [18],0 (Herbicidal rate of 5% or less (almost no effect))
same,"L: windgrass, herbicidal effect (criteria 0-5)",windgrass [19]; [26],0 (Herbicidal rate of 5% or less (almost no effect))
same,"herbicidal effect rating, C: oval-leafed pondweed",oval-leafed pondweed,0 (Herbicidal rate of 5% or less (almost no effect))
same,"O: lambsquarters, herbicidal effect (criteria 0-5)",lambsquarters [20]; [26],5 (Herbicidal rate of 90% or more (almost completely withered))
same,"I: wild oat, herbicidal effect (criteria 0-5)",wild oat [21]; [26],0 (Herbicidal rate of 5% or less (almost no effect))
same,herbicidal effect on N: redroot pigweed,redroot pigweed [22],0 (Herbicidal rate of 5% or less (almost no effect))
same,herbicidal effect on F: southern crabgrass,southern crabgrass [23],0 (Herbicidal rate of 5% or less (almost no effect))
same,"J: blackgrass, herbicidal effect (criteria 0-5)",blackgrass [24]; [26],0 (Herbicidal rate of 5% or less (almost no effect))
same,"G: green foxtail, herbicidal effect (criteria 0-5)",green foxtail [25]; [26],5 (Herbicidal rate of 90% or more (almost completely withered))
CCc1nn(C)c(=O)c(-c2c(-c3ccc(F)cc3)sc3ccc(F)cc23)c1O [2-406],"H: barnyard grass, herbicidal effect grade",barnyard grass [1]; [27],4 (Herbicidal rate of 70% or more and less than 90%)
same,herbicidal effect on H: barnyard grass,barnyard grass [2],4 (Herbicidal rate of 70% or more and less than 90%)
same,"F: southern crabgrass, herbicidal effect grade",southern crabgrass [3]; [27],3 (Herbicidal rate of 40% or more and less than 70%)
same,herbicidal effect on D: Chinese sprangletop,Chinese sprangletop,4 (Herbicidal rate of 70% or more and less than 90%)
same,"M: velvetleaf, herbicidal effect grade",velvetleaf [4]; [27],5 (Herbicidal rate of 90% or more (almost completely withered))
same,"herbicidal effect, J: blackgrass",blackgrass [5],0 (Herbicidal rate of 5% or less (almost no effect))
same,"herbicidal effect, L: windgrass",windgrass [6],0 (Herbicidal rate of 5% or less (almost no effect))
same,"N: redroot pigweed, herbicidal effect grade",redroot pigweed [7]; [27],5 (Herbicidal rate of 90% or more (almost completely withered))
same,"herbicidal effect, P: chickweed",chickweed [8],3 (Herbicidal rate of 40% or more and less than 70%)
same,"herbicidal effect rating, B: Japanese bulrush",Japanese bulrush,0 (Herbicidal rate of 5% or less (almost no effect))
same,"herbicidal effect rating, A: late watergrass",late watergrass,2 (Herbicidal rate of 20% or more and less than 40%)
same,"herbicidal effect, K: Italian ryegrass",Italian ryegrass [9],3 (Herbicidal rate of 40% or more and less than 70%)
same,"herbicidal effect, G: green foxtail",green foxtail [10],4 (Herbicidal rate of 70% or more and less than 90%)
same,herbicidal effect on E: rice flat sedge,rice flat sedge,5 (Herbicidal rate of 90% or more (almost completely withered))
same,"herbicidal effect, I: wild oat",wild oat [11],0 (Herbicidal rate of 5% or less (almost no effect))
same,"herbicidal effect, O: lambsquarters",lambsquarters [12],3 (Herbicidal rate of 40% or more and less than 70%)
same,"herbicidal effect, H: barnyard grass",barnyard grass [13],4 (Herbicidal rate of 70% or more and less than 90%)
same,"K: Italian ryegrass, herbicidal effect grade",Italian ryegrass [14]; [27],4 (Herbicidal rate of 70% or more and less than 90%)
same,"R: persian speedwell, herbicidal effect grade",persian speedwell [15]; [27],5 (Herbicidal rate of 90% or more (almost completely withered))
same,"P: chickweed, herbicidal effect grade",chickweed [16]; [27],5 (Herbicidal rate of 90% or more (almost completely withered))
same,"herbicidal effect, R: persian speedwell",persian speedwell [17],0 (Herbicidal rate of 5% or less (almost no effect))
same,"herbicidal effect, M: velvetleaf",velvetleaf [18],3 (Herbicidal rate of 40% or more and less than 70%)
same,"L: windgrass, herbicidal effect grade",windgrass [19]; [27],4 (Herbicidal rate of 70% or more and less than 90%)
same,"herbicidal effect rating, C: oval-leafed pondweed",oval-leafed pondweed,0 (Herbicidal rate of 5% or less (almost no effect))
same,"O: lambsquarters, herbicidal effect grade",lambsquarters [20]; [27],4 (Herbicidal rate of 70% or more and less than 90%)
same,"I: wild oat, herbicidal effect grade",wild oat [21]; [27],0 (Herbicidal rate of 5% or less (almost no effect))
same,"herbicidal effect, N: redroot pigweed",redroot pigweed [22],4 (Herbicidal rate of 70% or more and less than 90%)
same,"herbicidal effect, F: southern crabgrass",southern crabgrass [23],2 (Herbicidal rate of 20% or more and less than 40%)
same,"J: blackgrass, herbicidal effect grade",blackgrass [24]; [27],3 (Herbicidal rate of 40% or more and less than 70%)
same,"G: green foxtail, herbicidal effect grade",green foxtail [25]; [27],5 (Herbicidal rate of 90% or more (almost completely withered))

# Source: patent publication US20230085307A1, “PYRIDAZINONE COMPOUND AND HERBICIDE” (NISSAN CHEMICAL CORPORATION, priority 2019, published 2023)
